Laboratory results from patent US7169786B2, “Isoxazoline derivatives as anti-depressants” (priority 2001, dated 2007).
Where two headings read alike, the source gives them in different places.

Tests used:
[1] = biological target: T1, hα2A receptor (Homo sapiens, UniProt P08913); experiment: Radioligand binding experiment for hα2A receptor ([3H]-raulwolscine); conditions: membranes of CHO cells expressing human α2A receptor, [3H]raulwolscine 1 nM; for IC50: read-out: hα2A pIC50 (converted)
T1 construct: expressed in transfected cells
T1 sequence (P08913 1-465): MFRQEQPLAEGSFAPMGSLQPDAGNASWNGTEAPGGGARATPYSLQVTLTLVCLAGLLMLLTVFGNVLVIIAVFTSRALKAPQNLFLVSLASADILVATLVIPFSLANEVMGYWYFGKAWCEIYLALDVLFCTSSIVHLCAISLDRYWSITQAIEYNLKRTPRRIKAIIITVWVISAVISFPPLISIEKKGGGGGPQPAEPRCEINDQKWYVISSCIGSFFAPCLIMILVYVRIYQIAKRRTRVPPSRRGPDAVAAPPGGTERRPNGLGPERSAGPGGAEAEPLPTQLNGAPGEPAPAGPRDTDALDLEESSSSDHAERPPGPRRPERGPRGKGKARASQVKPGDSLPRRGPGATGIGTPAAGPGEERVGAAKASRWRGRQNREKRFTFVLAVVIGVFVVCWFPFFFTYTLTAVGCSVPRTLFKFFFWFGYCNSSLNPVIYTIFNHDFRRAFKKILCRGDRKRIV
Method: (§1) The interaction of the compounds of Formula (I) with hα2-receptors and h5-HT-transporters was assessed in in vitro radioligand binding experiments. In general, a low concentration of a radioligand with a high binding affinity for a particular receptor or transporter is incubated with a sample of a tissue preparation enriched in a particular receptor or transporter or with a preparation of cells expressing cloned human receptors in a buffered medium. During the incubation, the radioligand binds to the receptor or transporter. When equilibrium of binding is reached, the receptor bound radioactivity is separated from the non-bound radioactivity, and the receptor- or transporter-bound activity is counted. The interaction of the test compounds with the receptor is assessed in competition binding experiments. Various concentrations of the test compound are added to the incubation mixture containing the receptor- or transporter preparation and the radioligand. The test compound in proportion to its binding affinity and its concentration inhibits binding of the radioligand. The radioligand used for hα2A, hα2B and hα2C receptor binding was [^3H]-raulwolscine and for the h5-HT transporter was [^3H]paroxetine.
(§2) CHO cells, stabile transfected with human adrenergic-α2A-, -α2B or α2C receptor cDNA, were cultured in Dulbecco's Modified Eagle's Medium (DMEM)/Nutrient mixture Ham's F12 (ratio 1:1)(Gibco, Gent-Belgium) supplemented with 10% heat inactivated fetal calf serum (Life Technologies, Merelbeke-Belgium) and antibiotics (100 IU/ml penicillin G, 100 μg/ml streptomycin sulphate, 110 μg/ml pyruvic acid and 100 μg/ml L-glutamine). One day before collection, cells were induced with 5 mM sodiumbutyrate. Upon 80–90% of confluence, cells were scraped in phosphate buffered saline without Ca^2+ and Mg^2+ and collected by centrifugation at 1500×g for 10 min. The cells were homogenised in Tris-HCl 50 mM using an Ultraturrax homogenizer and centrifuged for 10 min at 23,500×g. The pellet was washed once by resuspension and rehomogenization and the final pellet was resuspended in Tris-HCl, divided in 1 ml aliquots and stored at −70° C.
(§3) Membranes were thawed and re-homogenized in incubation buffer (glycylglycine 25 mM, pH 8.0). […] Filters were rinsed extensively with ice-cold rinsing buffer (Tris-HCl 50 mM pH 7.4). Filter-bound radioactivity was determined by scintillation counting in a Topcount (Packard, Meriden, Conn.) and results were expressed as counts per minute (cpm). Non-specific binding was determined in the presence of 1 μM oxymetazoline for hα2A- and hα2B receptors and 1 μM spiroxatrine for hα2C receptors.
(§4) Data from assays in the presence of compound were calculated as a percentage of total binding measured in the absence of test compound. Inhibition curves, plotting percent of total binding versus the log value of the concentration of the test compound, were automatically generated, and sigmoidal inhibition curves were fitted using non-linear regression. The pIC50 values of test compounds were derived from individual curves.

[2] = biological target: T2, h5-HT transporter (Homo sapiens, UniProt P31645); experiment: Radioligand binding experiment for 5-HT transporter ([3H]paroxetine, human platelet membranes); conditions: for IC50: read-out: 5HTT pIC50 (converted)
T2 construct: Human platelet membranes (Oceanix Biosciences Corporation, Hanover, Md., USA) were thawed; tissue Oceanix Biosciences Corporation, Hanover, Md., USA; host or cells: human platelet membranes
Method: as §1
Human platelet membranes (Oceanix Biosciences Corporation, Hanover, Md., USA) were thawed, diluted in buffer (Tris-HCl 50 mM, 120 mM NaCl and 5 mM KCl) and quickly (max 3 s) homogenised with an Ultraturrax homogenizer. […] Filters were rinsed extensively with ice-cold buffer and radioactivity on the filters was counted in a Topcount liquid scintillation counter (Packard, Meriden, Conn.). Data were expressed as cpm. Imipramine (at 1 μM final concentration) was used to determine the non-specific binding.
as §4

[3] = biological target: T3, hα2C receptor (Homo sapiens, UniProt P18825); experiment: Radioligand binding experiment for hα2C receptor ([3H]-raulwolscine); conditions: for IC50: read-out: hα2C pIC50 (converted)
T3 construct: expressed in transfected cells
T3 sequence (P18825 1-462): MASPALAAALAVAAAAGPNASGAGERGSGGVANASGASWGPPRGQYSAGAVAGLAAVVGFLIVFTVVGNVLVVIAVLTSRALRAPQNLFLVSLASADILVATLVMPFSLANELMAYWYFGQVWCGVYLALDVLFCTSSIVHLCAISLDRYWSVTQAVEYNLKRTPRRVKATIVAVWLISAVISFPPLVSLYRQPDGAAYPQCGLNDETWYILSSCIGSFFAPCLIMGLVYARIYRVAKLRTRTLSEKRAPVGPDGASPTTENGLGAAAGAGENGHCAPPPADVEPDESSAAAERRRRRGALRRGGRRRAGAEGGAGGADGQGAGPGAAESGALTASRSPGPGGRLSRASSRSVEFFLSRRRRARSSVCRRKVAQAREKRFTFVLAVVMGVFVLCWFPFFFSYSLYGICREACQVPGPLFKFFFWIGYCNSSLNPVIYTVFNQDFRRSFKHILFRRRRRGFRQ
Method: as §1, §2, §3, §4

[4] = biological target: T4, hα2B receptor (Homo sapiens, UniProt P18089); experiment: Radioligand binding experiment for hα2B receptor ([3H]-raulwolscine); conditions: for IC50: read-out: hα2B pIC50 (converted)
T4 construct: expressed in transfected cells
T4 sequence (P18089 1-450): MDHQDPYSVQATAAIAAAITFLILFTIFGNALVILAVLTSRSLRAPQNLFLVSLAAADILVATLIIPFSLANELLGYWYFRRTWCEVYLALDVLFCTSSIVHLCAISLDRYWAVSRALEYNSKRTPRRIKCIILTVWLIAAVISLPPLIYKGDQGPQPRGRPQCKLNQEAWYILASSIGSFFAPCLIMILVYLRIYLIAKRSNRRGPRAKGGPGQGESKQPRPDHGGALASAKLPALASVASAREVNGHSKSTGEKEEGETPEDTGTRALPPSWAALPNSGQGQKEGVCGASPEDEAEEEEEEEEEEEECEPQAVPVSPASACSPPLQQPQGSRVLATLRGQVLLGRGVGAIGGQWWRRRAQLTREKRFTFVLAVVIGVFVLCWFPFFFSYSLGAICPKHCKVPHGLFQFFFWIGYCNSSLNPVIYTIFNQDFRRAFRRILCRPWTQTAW
Method: as §1, §2, §3, §4

[5] = human platelet membranes, [3H]paroxetine 0.5 nM
[6] = membranes of CHO cells expressing human α2C receptor, [3H]raulwolscine 1 nM
[7] = membranes of CHO cells expressing human α2B receptor, [3H]raulwolscine 1 nM

T2 sequence (P31645 whole entry): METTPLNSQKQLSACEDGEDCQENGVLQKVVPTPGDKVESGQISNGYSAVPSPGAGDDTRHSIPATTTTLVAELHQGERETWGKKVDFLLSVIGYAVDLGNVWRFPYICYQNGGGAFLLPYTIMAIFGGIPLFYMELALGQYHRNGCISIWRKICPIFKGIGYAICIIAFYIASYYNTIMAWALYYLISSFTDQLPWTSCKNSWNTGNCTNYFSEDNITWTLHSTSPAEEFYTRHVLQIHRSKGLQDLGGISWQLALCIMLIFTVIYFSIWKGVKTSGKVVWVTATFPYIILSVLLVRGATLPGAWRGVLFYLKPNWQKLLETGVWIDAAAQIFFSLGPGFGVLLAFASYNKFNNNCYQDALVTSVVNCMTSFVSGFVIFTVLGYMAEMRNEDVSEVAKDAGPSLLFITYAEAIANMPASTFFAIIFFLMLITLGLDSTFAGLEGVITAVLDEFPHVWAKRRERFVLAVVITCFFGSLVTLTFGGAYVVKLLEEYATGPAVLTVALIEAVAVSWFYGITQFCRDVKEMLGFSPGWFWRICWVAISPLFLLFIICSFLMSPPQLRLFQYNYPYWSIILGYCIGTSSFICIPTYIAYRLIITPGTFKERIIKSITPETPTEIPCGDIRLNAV

Row | IC50 [1] [nM] | IC50 [2, 5] [nM] | IC50 [3, 6] [nM] | Compound | other results
1 | 20.9 |  |  | COc1cc2c(cc1OCC1CC1)OCC1C2=NOC1CN1CCN(C/C(C)=C/c2ccc(F)cc2)CC1 (single isomer, unassigned) [Compound 337] | 
2 | 12.9 | 11.5 | 3.31 | COc1cc2c(cc1OC)C1=NOC(CN3CCN(C/C=C(\C)c4cccc(Cl)c4)CC3)C1CO2 (single isomer, unassigned) [Compound 366] | 
3 | 2.34 | 37.2 | 1.23 | COC(=O)Oc1cc2c(cc1OC)C1=NOC(CN3CCN(C/C(C)=C/c4ccccc4)CC3)C1CO2 (single isomer, unassigned) [Compound 343] | 
4 | 851 | 1000 | 1000 | COc1cc2c(cc1OC)C1=NOC(CN3CCN(Cc4cccn4C)CC3)C1CO2 (centres unmarked) [Compound 291] | 
5 | 2.69 |  | 2.29 | COc1cc2c(cc1OC(C)=O)OCC1C2=NOC1CN1CCN(C/C(C)=C/c2cccc(F)c2)CC1 (single isomer, unassigned) [Compound 334] | 
6 | 5.13 | 13.5 | 7.08 | COc1cc2c(cc1OC(C)=O)OCC1C2=NOC1CN1CCN(Cc2ccc3ccccc3c2)CC1 (centres unmarked) [Compound 355] | 
7 | 214 | 871 | 64.6 | COc1cc2c(cc1OC)C1=NOC(CN3CCN(CCC(O)c4ccccc4)CC3)C1CO2 (centres unmarked) [Compound 310] | 
8 | 195 | 302 |  | COc1cc2c(cc1OC)C1=NOC(CN3CCN(Cc4cccc(Br)c4)CC3)C1CO2 (centres unmarked) [Compound 90] | 
9 | 6.17 | 15.1 | 9.55 | COc1cc2c(cc1OC)C1=NOC(CN3CCN(C/C=C(\C)c4ccsc4)CC3)C1CO2 (single isomer, unassigned) [Compound 323] | 
10 | 1.48 | 37.2 | 3.24 | COc1cc2c(cc1OC(C)=O)OCC1C2=NOC1CN1CCN(C/C=C(\C)c2ccccc2)CC1 (single isomer, unassigned) [Compound 358] | 
11 | 12.6 | 4.17 | 3.09 | COc1cc2c(cc1OC)C1=NOC(CN3CCN(C/C=C(\C)c4ccc(F)cc4)CC3)C1CO2 (single isomer, unassigned) [Compound 361] | 
12 | 4.47 | 58.9 | 0.603 | COc1cc2c(cc1OCCOC(C)=O)C1=NOC(CN3CCN(CC(C)=Cc4ccccc4)CC3)C1CO2 (centres unmarked) [Compound 332] | 
13 | 7.94 | 44.7 | 3.47 | COc1cc2c(cc1OC)C1=NOC(CN3CCN(C/C=C(\C)c4ccccc4F)CC3)C1CO2 (single isomer, unassigned) [Compound 359] | 
14 | 50.1 | 389 | 58.9 | COc1cc2c(cc1OC)C1=NOC(CN3CCN(CCC(=O)c4ccccc4)CC3)C1CO2 (centres unmarked) [Compound 309] | 

Further lines, the compound ahead of its results:

Row | Compound | IC50 [1] [nM] | IC50 [2, 5] [nM] | IC50 [3, 6] [nM] | other results
15 | COCCOCOc1cc2c(cc1OC)C1=NOC(CN3CCN(C/C(C)=C/c4ccccc4)CC3)C1CO2 (single isomer, unassigned) [Compound 342] | 8.51 | 17.4 | 0.162 | 
16 | COc1ccc2c(c1)C1=NOC(CN3CCN(CC(C)=Cc4ccccc4)CC3)C1CO2 (centres unmarked) [Compound 348] | 1.2 | 17.8 | 1.32 | 
17 | C=CCOc1cc2c(cc1OC)C1=NOC(CN3CCN(CC(C)=Cc4ccccc4)CC3)C1CO2 (single isomer, unassigned) [Compound 344] |  |  |  | 5HTT pIC50 [2, 5]: 8.00; hα2A pIC50 [1]: 8.45; hα2C pIC50 [3, 6]: 8.68
18 | COc1cc2c(cc1SC)OCC1C2=NOC1CN1CCN(CC(C)=Cc2ccccc2)CC1.O=C(O)C(F)(F)F (racemic) [Compound 350] |  |  |  | 5HTT pIC50 [2, 5]: 7.69; hα2A pIC50 [1]: 8.39; hα2C pIC50 [3, 6]: 8.68
19 | COc1cc2c(cc1OS(C)(=O)=O)OCC1C2=NOC1CN1CCN(CC(C)=Cc2ccccc2)CC1 (single isomer, unassigned) [Compound 346] |  |  |  | 5HTT pIC50 [2, 5]: 8.37; hα2A pIC50 [1]: 8.65; hα2C pIC50 [3, 6]: 8.91
20 | O=C(N1CC2C(=NOC2CN2CCN(CC=Cc3ccccc3)CC2)c2ccccc21)C(F)(F)F (centres unmarked) [Compound 224] |  |  |  | 5HTT pIC50 [2, 5]: 7.31; hα2C pIC50 [3, 6]: 7.13; hα2B pIC50 [4, 7]: 7.66
21 | COc1cc2c(cc1OC)C1=NOC(CN3CCN(C/C=C(\C)c4ccccc4)CC3)C1CO2 (single isomer, unassigned) [Compound 320] |  |  |  | IC50 [2]: 32.4 nM; IC50 [3]: 6.76 nM; IC50 [4]: 20 nM
22 | C=CC(=O)Oc1ccc2c(c1)OCC1C2=NOC1CN1CCN(CC(C)=Cc2ccccc2)CC1 (centres unmarked) [Compound 251] |  |  |  | 5HTT pIC50 [2, 5]: 6.89; hα2C pIC50 [3, 6]: 8.26; hα2B pIC50 [4, 7]: 8.31
23 | CC(=Cc1ccccc1)CN1CCN(CC2ON=C3c4ccc(OC(=O)C5CC5)cc4OCC32)CC1 (centres unmarked) [Compound 250] |  | 81.3 |  | IC50 [3]: 3.31 nM; IC50 [4, 7]: 6.76 nM
24 | COc1cc2c(cc1OC)C1=NOC(CN3CCN(CC=C(C)c4ccccc4)CC3)C1CN2 (centres unmarked) [Compound 379] |  | 34.7 | 40.7 | IC50 [4, 7]: 19.5 nM
